This is an account of results in patent US4515793A, “Phenylpiperazines which are useful in the treatment of schistosomiasis” (Edna McConnell Clark Foundation, priority 1983, dated 1985).

Each structure is given as a SMILES string. Where two headings read alike, the source gives them in different places.

This assay concerns S. mansoni. Nature of the assay: antischistosomal activity in mice (live worm burden, single oral dose). In kind it is in vivo, S. mansoni (host: CD1 white female mice). The conditions noted are these: Schistosoma mansoni, read-out: % Reduction Live Worm Burden. As to the method: Tests were conducted to determine the antischistosomal activity in mice and monkeys. The results of the mice tests are reported in Tables 1 to 4 along with the chemical identifications of the compounds synthesized and tested.
The mice tests were conducted as follows:
A. Preinfection Procedures: Purina Laboratory chow (Ralston-Purina) and water were given ad libitum. All mice were housed in hanging stainless steel cages, without bedding, five per cage. They were kept in a ward with an ambient temperature of 75° F. and a relative humidity of 50-55%. Therapeutic treatment was given on Day 40 post-infection.
B. Experimental Procedures: CD1 white female mice were exposed by the tail immersion method for 30 minutes to 80 individually counted S. mansoni cercariae (WRAIR laboratory strain). The cercariae were obtained from pools of no less than 25 Biophalaria glabrata snails. Each experiment consisted of 118 mice divided into infected/water treated and infected/vehicle-treated controls, and infected/drug-treated groups (two dose levels) for six compounds. Groups of 12 mice each were treated with a compound synthesized and provided by the Warner-Lambert Company, Ann Arbor, Mich. at two dose levels. At the same time, five mice were sacrificed to establish worm burdens as infection controls. Three weeks after treatment, all remaining mice were sacrificed and perfused. Gross pathology (liver and intestines) was noted and graded (0 to +3). Worm burdens were determined and the sex of the worms recorded. Following perfusions the liver and intestines were removed and examined for the presence of […] or dead worms. […] Drugs were administered orally in Emulphor EL.
C. Drug Treatment: Treatment consisted of a single oral dose. Each drug was give initially at two dose levels, 40 mg/kg and 125 mg/kg, SID×1.
D. Criteria Used to Evaluate Therapeutic Effectiveness:
Evaluation of activity was determined by examination of the animals at 23 to 28 days after treatment. The schistosomes remaining alive after treatment were counted in the perfusates of the hepatic portal system and in press preparation of the livers. In the same preparations, the relative numbers of dead and/or encapsulated (i.e., worms may or may not be dead) parasites and the relative degree of pathology were ascertained. The efficacy of each treatment was that percentage of the control infection represented by the difference between numbers of parasites recovered from control (H2 O+vehicle) and treated animals. Thus, % efficacy is: [formula]

[1] abbreviates: 40 mg/kg, single oral dose, mice.
Where [2] appears, read: 125 mg/kg, single oral dose, mice.
Where [3] appears, read: single oral dose, mice (footnote, 125 mg/kg column).

As to `O=C(CN1CCN(c2ccc(CO)c(Cl)c2)CC1)c1ccc2ccccc2c1` [compound 19], under setting [1], the inhibition in vivo at 40 mg/kg is -37%. In addition, the inhibition in vivo at 125 mg/kg under setting [2] came out at 17%.
Take `CC(O)(CN1CCN(c2ccc(CO)c(Cl)c2)CC1)c1ccc(Cl)cc1` (centres unmarked) [Cpd. 61]: the inhibition in vivo at 20 mg/kg (single oral dose, mice) worked out at 68%. In addition, under setting [1], the inhibition in vivo at 40 mg/kg is 88%. Further, the inhibition in vivo at 125 mg/kg under setting [2] is 96%.
The matching figures for `CS(=O)(=O)c1ccc(C(=O)CCN2CCN(c3ccc(CO)c(Cl)c3)CC2)cc1` [Cpd. 32]: 43%, 84% and 91%.
Consider `Cc1cc(C)c(C(=O)CN2CCN(c3ccc(CO)c(Cl)c3)CC2)c(C)c1` [compound 21], for which, under setting [1], the inhibition in vivo at 40 mg/kg is 27%. Besides, under setting [2], the inhibition in vivo at 125 mg/kg is 78%.
`O=C(CN1CCN(c2ccc(CO)c(Cl)c2)CC1)c1cc(Cl)ccc1Cl` [compound 20]: for the setting “single oral dose, mice”, the inhibition in vivo at 20 mg/kg turned out to be 72%. Under setting [1], the inhibition in vivo at 40 mg/kg worked out at 65%. Further, the inhibition in vivo at 160 mg/kg under setting [3] was 99%.
In the case of `O=C(CCN1CCN(c2ccc(CO)c(Cl)c2)CC1)c1ccc2ccccc2c1` [compound 36], the inhibition in vivo at 20 mg/kg (single oral dose, mice) stood at 75%. For the same compound, the inhibition in vivo at 40 mg/kg under setting [1] was 82%. In addition, under setting [2], the inhibition in vivo at 125 mg/kg was 95%.
In the case of `O=C(CCN1CCN(c2ccc(CO)c(Cl)c2)CC1)c1ccc(Br)cc1` [compound 42], under “single oral dose, mice”, the inhibition in vivo at 20 mg/kg was determined as 82%. Also, the inhibition in vivo at 40 mg/kg under setting [1] was 84%. In addition, the inhibition in vivo at 125 mg/kg under setting [2] turned out to be 98%.
On to `O=C(CCN1CCN(c2ccc(CO)c(Cl)c2)CC1)c1ccccc1` [compound 29], for which the inhibition in vivo at 40 mg/kg under setting [1] worked out at 69%. Besides, the inhibition in vivo at 125 mg/kg under setting [2] was found to be 89%.
Take `Cc1ccc(C(=O)CCCN2CCN(c3ccc(CO)c(Cl)c3)CC2)cc1C` [compound 60]: under setting [1], the inhibition in vivo at 40 mg/kg was 67%. Also, the inhibition in vivo at 125 mg/kg under setting [2] turned out to be 88%.
As to `O=C(CCN1CCN(c2ccc(CO)c(Cl)c2)CC1)c1ccc(-c2ccccc2)cc1` [compound 44], the inhibition in vivo at 20 mg/kg (single oral dose, mice) is 69%. In addition, under setting [1], the inhibition in vivo at 40 mg/kg stood at 89%. The inhibition in vivo at 125 mg/kg under setting [2] came out at 97%.
For `Cc1ccc(C(=O)CCN2CCN(c3ccc(CO)c(Cl)c3)CC2)cc1` [compound 30], under setting [1], the inhibition in vivo at 40 mg/kg came to 75%. Besides, the inhibition in vivo at 125 mg/kg under setting [2] was found to be 96%.
`O=C(CN1CCN(c2ccc(CO)c(Cl)c2)CC1)c1cccc(Cl)c1` [compound 27]: the inhibition in vivo at 40 mg/kg under setting [1] was 64%. Further, the inhibition in vivo at 125 mg/kg under setting [2] was found to be 83%.
Take `O=C(CCN1CCN(c2ccc(CO)c(Cl)c2)CC1)c1ccc(Cl)c(Cl)c1Cl` [compound 41]: the inhibition in vivo at 20 mg/kg (single oral dose, mice) is 82%. The inhibition in vivo at 40 mg/kg under setting [1] is 83%. Further, the inhibition in vivo at 125 mg/kg under setting [2] turned out to be 96%.
With `CSc1ccc(C(=O)CCN2CCN(c3ccc(CO)c(Cl)c3)CC2)cc1` [Cpd. 31], the inhibition in vivo at 40 mg/kg under setting [1] turned out to be 73%. For the same compound, under setting [2], the inhibition in vivo at 125 mg/kg was 93%.
As for `CC(C)(C)c1ccc(C(=O)CN2CCN(c3ccc(CO)c(Cl)c3)CC2)cc1` [compound 11], the inhibition in vivo at 40 mg/kg under setting [1] was determined as 16%. Under setting [3], the inhibition in vivo at 160 mg/kg was found to be 59%.
As to `O=C(CN1CCN(c2ccc(CO)c(Cl)c2)CC1)c1ccc(I)s1` [compound 48], the inhibition in vivo at 40 mg/kg under setting [1] was -20%. The inhibition in vivo at 125 mg/kg under setting [2] turned out to be 30%.
In the case of `N#Cc1ccc(C(=O)CN2CCN(c3ccc(CO)c(Cl)c3)CC2)cc1` [compound 23], the inhibition in vivo at 40 mg/kg under setting [1] stood at 40%. In addition, the inhibition in vivo at 125 mg/kg under setting [2] was 90%.
The matching figures for `C[S+]([O-])c1ccc(C(=O)CCN2CCN(c3ccc(CO)c(Cl)c3)CC2)cc1` (centres unmarked) [compound 38]: 73% and 91%.
The matching figures for `COc1ccc(C(=O)CCN2CCN(c3ccc(CO)c(Cl)c3)CC2)cc1` [compound 34]: 39% and 93%.
Take `O=C(CN1CCN(c2ccc(CO)c(Cl)c2)CC1)c1ccc(Cl)cc1O` [compound 18]: under setting [1], the inhibition in vivo at 40 mg/kg is 5%. Also, the inhibition in vivo at 160 mg/kg under setting [3] was found to be 26%.
With `Nc1cccc(C(=O)CN2CCN(c3ccc(CO)c(Cl)c3)CC2)c1` [Cpd. 25, 2-[4-[3-Chloro-4-(hydroxymethyl)phenyl]-1-piperazinyl]-1-(3-aminophenyl)-ethanone], the inhibition in vivo at 40 mg/kg under setting [1] was -11%. Also, under setting [2], the inhibition in vivo at 125 mg/kg is 46%.
With `Cc1cc(C)c(C(=O)CN2CCN(c3ccc(CO)c(Cl)c3)CC2)cc1C` [compound 17], the inhibition in vivo at 40 mg/kg under setting [1] amounted to 29%. Moreover, under setting [3], the inhibition in vivo at 160 mg/kg was 71%.
Consider `Nc1cc(C(=O)CCN2CCN(c3ccc(CO)c(Cl)c3)CC2)ccc1Cl` [Cpd. 37], for which the inhibition in vivo at 20 mg/kg (single oral dose, mice) was found to be 81%. The inhibition in vivo at 40 mg/kg under setting [1] is 83%. In addition, the inhibition in vivo at 125 mg/kg under setting [2] is 95%.
Consider `O=C1c2ccccc2CCC1N1CCN(c2ccc(CO)c(Cl)c2)CC1` (centres unmarked) [compound 22], for which the inhibition in vivo at 40 mg/kg came out at 73% and the inhibition in vivo at 125 mg/kg was 87%.
On to `O=C(CN1CCN(c2ccc(CO)c(Cl)c2)CC1)c1cc(Cl)cc(Cl)c1` [compound 16], for which the inhibition in vivo at 40 mg/kg under setting [1] came to 64%. In addition, the inhibition in vivo at 125 mg/kg under setting [2] was found to be 89%.
For `O=C(CN1CCN(c2ccc(CO)c(Cl)c2)CC1)c1cc(Cl)sc1Cl` [compound 54], in that order: 69% and 83%.
As to `O=C(CCN1CCN(c2ccc(CO)c(Cl)c2)CC1)c1ccc(Cl)cc1Cl` [compound 39], the inhibition in vivo at 20 mg/kg (single oral dose, mice) is 70%. In addition, the inhibition in vivo at 40 mg/kg under setting [1] is 86%. Moreover, the inhibition in vivo at 125 mg/kg under setting [2] came to 94%.
Take `O=C(CCN1CCN(c2ccc(CO)c(Cl)c2)CC1)c1ccc(Cl)c([N+](=O)[O-])c1` [Cpd. 35]: under setting [1], the inhibition in vivo at 40 mg/kg worked out at 79%. The inhibition in vivo at 125 mg/kg under setting [2] was 98%.
As to `O=C(CCN1CCN(c2ccc(CO)c(Cl)c2)CC1)c1ccco1` [Cpd. 57], the inhibition in vivo at 20 mg/kg (single oral dose, mice) came out at 60%. Under setting [1], the inhibition in vivo at 40 mg/kg worked out at 85%. The inhibition in vivo at 125 mg/kg under setting [2] is 98%.
With `O=C(CN1CCN(c2ccc(CO)c(Cl)c2)CC1)c1ccco1` [compound 46], the inhibition in vivo at 50 mg/kg (50 mg/kg, single oral dose, mice (footnote, 40 mg/kg)) was determined as 31%. In addition, the inhibition in vivo at 156 mg/kg (156 mg/kg, single oral dose, mice (footnote, 125 mg/kg column)) is 83%.
In the case of `O=C(CN1CCN(c2ccc(CO)c(Cl)c2)CC1)c1ccc(C(F)(F)F)cc1` [compound 15], the inhibition in vivo at 40 mg/kg under setting [1] was found to be 43%. In addition, under setting [2], the inhibition in vivo at 125 mg/kg was 79%.
For `O=C(CN1CCN(c2ccc(CO)c(Cl)c2)CC1)c1cccc([N+](=O)[O-])c1` [Cpd. 12, 2-[4-[3-chloro-4-(hydroxymethyl)phenyl]-1-piperazinyl]-1(3-nitrophenyl)ethanone], in that order: 31% and 73%.
For the compound `O=C(CCN1CCN(c2ccc(CO)c(Cl)c2)CC1)c1cc(Cl)ccc1Cl` [compound 43], the inhibition in vivo at 20 mg/kg (single oral dose, mice) came to 84%. For the same compound, the inhibition in vivo at 40 mg/kg under setting [1] is 80%. Besides, under setting [2], the inhibition in vivo at 125 mg/kg came out at 98%.
As to `O=C(CN1CCN(c2ccc(CO)c(Cl)c2)CC1)c1ccc2c(c1)Sc1ccccc1S2` [compound 55], the inhibition in vivo at 40 mg/kg under setting [1] stood at 54%. Besides, the inhibition in vivo at 125 mg/kg under setting [2] was 68%.
For `O=C(CN1CCN(c2ccc(CO)c(Cl)c2)CC1)c1ccc(Cl)cc1` [Cpd. 1], in that order: 42% and 67%.
Regarding `O=C(CN1CCN(c2ccc(CO)c(Cl)c2)CC1)c1cc(Cl)c(Cl)cc1Cl` [compound 13], the inhibition in vivo at 20 mg/kg (single oral dose, mice) turned out to be 53%. Moreover, under setting [1], the inhibition in vivo at 40 mg/kg was determined as 86%. The inhibition in vivo at 125 mg/kg under setting [2] is 98%.
In the case of `COc1ccc(C(=O)CN2CCN(c3ccc(CO)c(Cl)c3)CC2)c(OC)c1OC` [compound 9], the inhibition in vivo at 40 mg/kg under setting [1] worked out at 13%. Further, the inhibition in vivo at 125 mg/kg under setting [2] is 30%.
Turning to `Cc1ccsc1C(=O)CN1CCN(c2ccc(CO)c(Cl)c2)CC1` [compound 50], the inhibition in vivo at 40 mg/kg under setting [1] was -12%. Besides, under setting [2], the inhibition in vivo at 125 mg/kg worked out at 28%.
On to `O=C(CN1CCN(c2ccc(CO)c(Cl)c2)CC1)c1ccc(S(=O)(=O)N2CCCCC2)cc1` [Cpd. 4], for which the inhibition in vivo at 40 mg/kg under setting [1] was -10%. Further, the inhibition in vivo at 125 mg/kg under setting [2] was found to be 66%.
The matching figures for `O=C(CN1CCN(c2ccc(CO)c(Cl)c2)CC1)c1ccsc1` [compound 51]: -6% and 83%.
